Results as given in the supplement of paper PMC11061612.

What was measured:
Assay in all cases: Bliss excess, mean over the matrix (fraction); higher = more synergy
[1] = tested on: TGBC11TKB (Gastric Carcinoma)
How it was run: (§1)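 Bliss excess equals the observed combination effect minus the expected value EA + EB − EA·EB, where EA and EB are the effects of each agent alone. Combination Emax is the second-highest inhibition within the matrix. Inhibition was scaled from CellTiter-Glo 2.0 luminescence, with 0 set by vehicle wells and 1 by blank wells, after 72 hours of two-drug dosing of cells plated in 1536-well plates.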

[2] = tested on: KYSE-150 (Esophageal Squamous Cell Carcinoma)
How it was run: as §1

[3] = tested on: BV-173 (Chronic Myelogenous Leukemia)
How it was run: as §1

[4] = tested on: SCC-9 (Oral Cavity Carcinoma)
How it was run: as §1

GI-1 (Glioblastoma) = tested on: GI-1 (Glioblastoma)
How it was run: as §1

[5] = tested on: SNU-C1 (Colorectal Carcinoma)
How it was run: as §1

IMR-5 (Neuroblastoma) = tested on: IMR-5 (Neuroblastoma)
How it was run: as §1

U-87-MG (Glioblastoma) = tested on: U-87-MG (Glioblastoma)
How it was run: as §1

NH-12 (Neuroblastoma) = tested on: NH-12 (Neuroblastoma)
How it was run: as §1

[6] = tested on: NCI-N87 (Gastric Carcinoma)
How it was run: as §1

[7] = tested on: NCI-H1573 (Lung Adenocarcinoma)
How it was run: as §1

[8] = tested on: KINGS-1 (Low Grade Glioma)
How it was run: as §1

[9] = tested on: HC-1 (Other Blood Carcinomas)
How it was run: as §1

[10] = tested on: VMRC-LCD (Lung Adenocarcinoma)
How it was run: as §1

[11] = tested on: NCI-H322M (Lung Adenocarcinoma)
How it was run: as §1

A704 (Kidney Carcinoma) = tested on: A704 (Kidney Carcinoma)
How it was run: as §1

[12] = tested on: MFE-319 (Endometrial Carcinoma)
How it was run: as §1

[13] = tested on: NCI-H2405 (Lung Adenocarcinoma)
How it was run: as §1

RPMI-7951 (Melanoma) = tested on: RPMI-7951 (Melanoma)
How it was run: as §1

[14] = tested on: KU-19-19 (Bladder Carcinoma)
How it was run: as §1

SMILES	Bliss excess [1]	Bliss excess [2]	Bliss excess [3]	Bliss excess [4]	Bliss excess (GI-1 (Glioblastoma))	Bliss excess [5]	Bliss excess (IMR-5 (Neuroblastoma))	Bliss excess (U-87-MG (Glioblastoma))	Bliss excess (NH-12 (Neuroblastoma))	Bliss excess [6]	Bliss excess [7]	Bliss excess [8]	Bliss excess [9]	Bliss excess [10]	Bliss excess [11]	Bliss excess (A704 (Kidney Carcinoma))	Bliss excess [12]	Bliss excess [13]	Bliss excess (RPMI-7951 (Melanoma))	Bliss excess [14]
Cc1c2c(nn1C)CSCc1cc(n(C)n1)CSc1cc(c3ccccc3c1)OCCCc1c(C(=O)O)n(C)c3c-2c(Cl)ccc13 [AZD5991] + CN(C)CCCOc1ccc(-c2ccc3ncc4c(c3c2)n(C2CCOCC2)c(=O)n4C)cn1 [AZD0156] (first compound max 1 µM, 7x7, partner max 1 µM)	0.007	-0.0143	-0.114	-0.0237	0.0067	-0.0652	-0.0194	-0.0477	-0.0511	0.0027	-0.0443	0.0128	-0.0479	0.0165	-0.0017	-0.0475	0.0347	-0.0075	-0.0382	0.0263
C[C@@H](c1ccc2nccn2c1)n1nnc2ncc(-c3cnn(C)c3)nc21 [Savolitinib] + CC1(C)CCC(CN2CCN(c3ccc(C(=O)NS(=O)(=O)c4ccc(NCC5CCOCC5)c([N+](=O)[O-])c4)c(Oc4cnc5[nH]ccc5c4)c3)CC2)=C(c2ccc(Cl)cc2)C1 [Venetoclax] (first compound max 1 µM, 7x7, partner max 1 µM)	-0.0367	-0.0686	0.0064	-0.0328	0.0079	-0.0363	-0.0158	-0.0699	-0.0158	-0.0341	-0.0802	-0.0566	-0.0824	-0.0153	-0.0536	-0.0516	-0.0764	-0.0793	-0.0432	-0.0468
NC1(C(=O)N[C@@H](CCO)c2ccc(Cl)cc2)CCN(c2ncnc3[nH]ccc23)CC1 [Capivasertib] + CCN(CCO)CCCOc1ccc2c(Nc3cc(CC(=O)Nc4cccc(F)c4)[nH]n3)ncnc2c1 [AZD2811] (first compound max 10 µM, 7x7, partner max 1 µM)	-0.0987	-0.011	-0.031	-0.0281	0.022	-0.0407	-0.0144	0.0175	-0.0439	-0.0529	-0.0074	-0.0012	-0.0564	0.0111	0.0203	-0.0375	-0.107	-0.0535	-0.0886	0.0011
CN(CCO)CC[C@H](CSc1ccccc1)Nc1ccc(S(=O)(=O)NC(=O)c2ccc(N3CCC([C@@H](O)c4ccccc4-c4ccc(Cl)cc4)CC3)cc2)cc1S(=O)(=O)C(F)(F)F [AZD4320] + C[C@@H]1COCCN1C2=NC(=NC(=C2)C3(CC3)[S@](=N)(=O)C)C4=C5C=CNC5=NC=C4 [AZD6738] (first compound max 1 µM, 7x7, partner max 10 µM)	0.0135	-0.0536	-0.0453	-0.0587	-0.0203	-0.115	0.102	-0.0248	-0.0795	-0.0456	-0.0524	-0.0806	0.0127	-0.0764	-0.0335	-0.0084	-0.0119	-0.0448	-0.0137	-0.0381
CN(CCO)CC[C@H](CSc1ccccc1)Nc1ccc(S(=O)(=O)NC(=O)c2ccc(N3CCC([C@@H](O)c4ccccc4-c4ccc(Cl)cc4)CC3)cc2)cc1S(=O)(=O)C(F)(F)F [AZD4320] + C=CCn1c(=O)c2cnc(Nc3ccc(N4CCN(C)CC4)cc3)nc2n1-c1cccc(C(C)(C)O)n1 [AZD1775] (first compound max 1 µM, partner max 1 µM)	0.0443	-0.0634	-0.0038	-0.0054	0.0542	-0.0588	0.118	-0.0637	-0.0149	0.0086	-0.0052	0.0509	0.206	-0.0459	-0.0521	0.0138	0.0537	-0.0234	-0.0023	-0.018
NC1(C(=O)N[C@@H](CCO)c2ccc(Cl)cc2)CCN(c2ncnc3[nH]ccc23)CC1 [Capivasertib] + Cn1cnc2c(F)c(Nc3ccc(Br)cc3Cl)c(C(=O)NOCCO)cc21 [Selumetinib] (first compound max 10 µM, 7x7, partner max 10 µM)	0.0387	0.0676	0.0219	0.145	0.0399	-0.0085	0.0034	-0.0316	0.0644	0.01	0.0019	0.0272	0.0123	0.0047	0.0035	-0.0098	0.0088	0.0153	-0.0415	-0.0364
CN(C)CCCOc1ccc(-c2ccc3ncc4c(c3c2)n(C2CCOCC2)c(=O)n4C)cn1 [AZD0156] + O=C(c1cc(Cc2n[nH]c(=O)c3ccccc23)ccc1F)N1CCN(C(=O)C2CC2)CC1 [Olaparib] (first compound max 3 µM, partner max 3 µM)	-0.0984	0.116	0.092	0.0741	0.0337	-0.0049	0.0884	0.0207	-0.0131	-0.0568	0.0002	-0.0057	0.134	-0.0489	0.0142	0.026	0.0188	-0.0471	0.0588	0.0781
CN(CCO)CC[C@H](CSc1ccccc1)Nc1ccc(S(=O)(=O)NC(=O)c2ccc(N3CCC([C@@H](O)c4ccccc4-c4ccc(Cl)cc4)CC3)cc2)cc1S(=O)(=O)C(F)(F)F [AZD4320] + CCN(CCO)CCCOc1ccc2c(Nc3cc(CC(=O)Nc4cccc(F)c4)[nH]n3)ncnc2c1 [AZD2811] (first compound max 1 µM, 7x7, partner max 1 µM)	0.0198	0.007	-0.0566	-0.0115	0.144	-0.0263	-0.0229	-0.019	-0.049	0.0195	-0.0135	0.006	0.173	-0.0741	-0.0353	-0.0659	0.0841	-0.0333	0.0295	0.0207
CC1(C)CCC(CN2CCN(c3ccc(C(=O)NS(=O)(=O)c4ccc(NCC5CCOCC5)c([N+](=O)[O-])c4)c(Oc4cnc5[nH]ccc5c4)c3)CC2)=C(c2ccc(Cl)cc2)C1 [Venetoclax] + C1CN(CCC1(C(=O)N[C@@H](CCO)C2=CC=C(C=C2)Cl)N)C3=NC=NC4=C3C=CN4 [Capivasertib] (first compound max 1 µM, 7x7, partner max 3 µM)	-0.0374	0.0107	-0.0613	-0.0438	-0.0234	-0.109	-0.0486	-0.0214	-0.0289	-0.0833	-0.0733	-0.0696	0.0217	-0.0514	-0.103	-0.079	-0.0414	-0.0418	-0.0233	-0.0465
COc1nnc2ccc(N3CCC(c4ccc(OCCN5CCN(C)C(=O)[C@H]5C)cc4)CC3)nn12 [AZD5153] + Cc1c2c(nn1C)CSCc1cc(n(C)n1)CSc1cc(c3ccccc3c1)OCCCc1c(C(=O)O)n(C)c3c-2c(Cl)ccc13 [AZD5991] (first compound max 1 µM, 7x7, partner max 1 µM)	-0.0666	-0.0732	0.0184	-0.0322	0.0022	-0.0376	-0.0178	0.0336	-0.0206	-0.0073	0.0475	-0.0146	0.0424	0.0098	-0.0517	-0.0297	-0.0227	0.01	-0.0575	-0.0634
CN(CCO)CC[C@H](CSc1ccccc1)Nc1ccc(S(=O)(=O)NC(=O)c2ccc(N3CCC([C@@H](O)c4ccccc4-c4ccc(Cl)cc4)CC3)cc2)cc1S(=O)(=O)C(F)(F)F [AZD4320] + C[C@@H](Nc1cc(F)cc(F)c1)c1cc(C(=O)N(C)C)cc2c(=O)cc(N3CCOCC3)oc12 [AZD8186] (first compound max 1 µM, 7x7, partner max 3 µM)	-0.0032	-0.0055	0.0166	-0.0094	-0.0011	-0.0417	0.0508	0.0472	-0.0224	0.0029	-0.0545	0.0959	0.0252	-0.0206	0.0489	-0.117	0.0048	-0.0239	0.0019	0.0039
Cn1cnc2c(F)c(Nc3ccc(Br)cc3Cl)c(C(=O)NOCCO)cc21 [Selumetinib] + C=CCn1c(=O)c2cnc(Nc3ccc(N4CCN(C)CC4)cc3)nc2n1-c1cccc(C(C)(C)O)n1 [AZD1775] (first compound max 10 µM, partner max 1 µM)	-0.0163	0.0705	-0.0026	0.0789	-0.0387	0.016	0.0121	-0.0685	-0.101	0.023	-0.0331	0.0173	-0.0702	-0.0272	-0.0097	-0.0211	-0.0715	0.0147	-0.0482	-0.0308
COc1nnc2ccc(N3CCC(c4ccc(OCCN5CCN(C)C(=O)[C@H]5C)cc4)CC3)nn12 [AZD5153] + C[C@@H]1COCCN1C2=NC(=NC(=C2)C3(CC3)[S@](=N)(=O)C)C4=C5C=CNC5=NC=C4 [AZD6738] (first compound max 1 µM, 7x7, partner max 10 µM)	-0.046	-0.0482	-0.0506	0.0394	0.0053	-0.0404	0.0121	0.0506	-0.0381	-0.0135	0.0531	-0.0124	-0.0468	0.0235	-0.102	-0.0278	-0.0852	0.0638	0.0423	-0.0645
CC(=O)c1c(C)c2cnc(Nc3ccc(N4CCNCC4)cn3)nc2n(C2CCCC2)c1=O [Palbociclib] + CC1(C)CCC(CN2CCN(c3ccc(C(=O)NS(=O)(=O)c4ccc(NCC5CCOCC5)c([N+](=O)[O-])c4)c(Oc4cnc5[nH]ccc5c4)c3)CC2)=C(c2ccc(Cl)cc2)C1 [Venetoclax] (first compound max 10 µM, 7x7, partner max 1 µM)	-0.0901	-0.0225	0.0021	-0.051	-0.0394	-0.093	0.0953	-0.054	0.0627	-0.0275	0.0244	0.0075	0.0552	-0.0377	-0.0288	-0.0575	-0.0586	-0.0521	0.0005	-0.0135
